Test results from patent US20170190671A1, “BIS(ARYL)CATECHOL DERIVATIVES AS HERBICIDES” (E I DU PONT DE NEMOURS AND COMPANY, priority 2014, published 2017).

Experiments:
Assay type in all cases: in vivo
[1] = tested on: barnyardgrass (Echinochloa crus-galli); assay: Test B flooded paddy; details: Echinochloa crus-galli, 336 h; 250 g ai/ha, Flood, 13 to 15 days, scale 0 (no effect) to 100 (complete control); read-out: Plant response rating, Barnyardgrass
Text: (§1) At time of treatment, test pots were flooded to 3 cm above the soil surface, treated by application of test compounds directly to the paddy water, and then maintained at that water depth for the duration of the test. Treated plants and controls were maintained in a greenhouse for 13 to 15 days, after which time all species were compared to controls and visually evaluated. […] A dash (-) response means no test result.

[2] = tested on: ducksalad (Heteranthera limosa); assay: Test B flooded paddy; details: Heteranthera limosa, 336 h; 250 g ai/ha, Flood, 13 to 15 days, scale 0 (no effect) to 100 (complete control); read-out: Plant response rating, Ducksalad
Text: as §1

[3] = tested on: rice (Oryza sativa); assay: Test B flooded paddy; details: Oryza sativa, 336 h; 250 g ai/ha, Flood, 13 to 15 days, scale 0 (no effect) to 100 (complete control); read-out: Plant response rating, Rice
Text: as §1

[4] = tested on: sedge, umbrella (small-flower umbrella sedge, Cyperus difformis); assay: Test B flooded paddy; details: Cyperus difformis, 336 h; 250 g ai/ha, Flood, 13 to 15 days, scale 0 (no effect) to 100 (complete control); read-out: Plant response rating, Sedge, Umbrella
Text: as §1

[5] = tested on: barnyardgrass (Echinochloa crus-galli); assay: Test A preemergence; details: Echinochloa crus-galli, pre-emergence, 240 h, 0 to 100 scale, read-out: Plant response rating, Barnyardgrass; for pest or weed control at 125 g/ha: 125 g ai/ha; for pest or weed control at 500 g/ha: 500 g ai/ha
Method in brief: (§2)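 Visual 0–100 rating (100 = complete control) taken about 10 d post-treatment relative to untreated checks. Preemergence: directed soil spray on sown loam/sand pots. Postemergence: seedlings 2–10 cm, 1–2 leaf. Non-phytotoxic solvent formulation with surfactant.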

[6] = tested on: corn (Zea mays); assay: Test A preemergence; details: 0 to 100 scale
Method in brief: as §2

[7] = tested on: giant foxtail (Setaria faberii); assay: Test A preemergence; details: Setaria faberi, pre-emergence, 240 h, 0 to 100 scale, read-out: Plant response rating, Foxtail, Giant; for pest or weed control at 125 g/ha: 125 g ai/ha; for pest or weed control at 500 g/ha: 500 g ai/ha
Method in brief: as §2

[8] = tested on: large (Lg) crabgrass (Digitaria sanguinalis); assay: Test A preemergence; details: 0 to 100 scale
Method in brief: as §2

[9] = tested on: morningglory (Ipomoea spp.); assay: Test A preemergence; details: 0 to 100 scale
Method in brief: as §2

[10] = tested on: pigweed (Amaranthus retroflexus); assay: Test A preemergence; details: Amaranthus retroflexus, pre-emergence, 240 h, 0 to 100 scale, read-out: Plant response rating, Pigweed; for pest or weed control at 125 g/ha: 125 g ai/ha; for pest or weed control at 500 g/ha: 500 g ai/ha
Method in brief: as §2

[11] = tested on: velvetleaf (Abutilon theophrasti); assay: Test A preemergence; details: 0 to 100 scale
Method in brief: as §2

[12] = tested on: wheat (Triticum aestivum); assay: Test A preemergence; details: 0 to 100 scale
Method in brief: as §2

[13] = tested on: barnyardgrass (Echinochloa crus-galli); assay: Test A postemergence; details: Echinochloa crus-galli, post-emergence, 240 h, 0 to 100 scale, read-out: Plant response rating, Barnyardgrass; for pest or weed control at 125 g/ha: 125 g ai/ha; for pest or weed control at 500 g/ha: 500 g ai/ha
Method in brief: as §2

[14] = tested on: corn (Zea mays); assay: Test A postemergence; details: Zea mays, post-emergence, 240 h, 0 to 100 scale; for Corn plant response rating (crop injury, 0 = no effect, 100 = complete kill) at 125 g/ha: 125 g ai/ha; for Corn plant response rating (crop injury, 0 = no effect, 100 = complete kill) at 500 g/ha: 500 g ai/ha
Method in brief: as §2

[15] = tested on: giant foxtail (Setaria faberii); assay: Test A postemergence; details: Setaria faberi, post-emergence, 240 h, 0 to 100 scale, read-out: Plant response rating, Foxtail, Giant; for pest or weed control at 125 g/ha: 125 g ai/ha; for pest or weed control at 500 g/ha: 500 g ai/ha
Method in brief: as §2

[16] = tested on: large (Lg) crabgrass (Digitaria sanguinalis); assay: Test A postemergence; details: 0 to 100 scale
Method in brief: as §2

[17] = tested on: morningglory (Ipomoea spp.); assay: Test A postemergence; details: 0 to 100 scale
Method in brief: as §2

[18] = tested on: pigweed (Amaranthus retroflexus); assay: Test A postemergence; details: Amaranthus retroflexus, post-emergence, 240 h, 0 to 100 scale, read-out: Plant response rating, Pigweed; for pest or weed control at 125 g/ha: 125 g ai/ha; for pest or weed control at 500 g/ha: 500 g ai/ha
Method in brief: as §2

[19] = tested on: velvetleaf (Abutilon theophrasti); assay: Test A postemergence; details: 0 to 100 scale
Method in brief: as §2

[20] = tested on: wheat (Triticum aestivum); assay: Test A postemergence; details: Triticum aestivum, post-emergence, 240 h, 0 to 100 scale, read-out: Plant response rating, Wheat; for plant injury at 125 g/ha: 125 g ai/ha; for plant injury at 500 g/ha: 500 g ai/ha
Method in brief: as §2

[21] = tested on: barnyardgrass (Echinochloa crus-galli); assay: Test C flooded paddy; details: Flood, scale 0 to 100
Text: as §1

[22] = tested on: ducksalad (Heteranthera limosa); assay: Test C flooded paddy; details: Flood, scale 0 to 100
Text: as §1

[23] = tested on: rice (Oryza sativa); assay: Test C flooded paddy; details: Flood, scale 0 to 100
Text: as §1

[24] = tested on: sedge, umbrella (small-flower umbrella sedge, Cyperus difformis); assay: Test C flooded paddy; details: Flood, scale 0 to 100
Text: as §1

N#Cc1cccc(Oc2ncc(F)cn2)c1Oc1ncc(F)cn1 [Compound 2, 2,3-bis[(5-fluoro-2-pyrimidinyl)oxy]benzonitrile]
pest or weed control at 250 g/ha [1]: 20%
pest or weed control at 250 g/ha [2]: 70%
plant injury at 250 g/ha [3]: 15%
pest or weed control at 250 g/ha [4]: 60%
pest or weed control at 125 g/ha [5]: 20%
pest or weed control at 500 g/ha [5]: 100%
Plant response rating, Corn ([6]; 125 g ai/ha): 20
Plant response rating, Corn ([6]; 500 g ai/ha): 60
pest or weed control at 125 g/ha [7]: 100%
pest or weed control at 500 g/ha [7]: 100%
Plant response rating, Crabgrass, Large ([8]; 125 g ai/ha): 100
Plant response rating, Crabgrass, Large ([8]; 500 g ai/ha): 100
Plant response rating, Morningglory ([9]; 125 g ai/ha): 50
Plant response rating, Morningglory ([9]; 500 g ai/ha): 100
pest or weed control at 125 g/ha [10]: 100%
pest or weed control at 500 g/ha [10]: 100%
Plant response rating, Velvetleaf ([11]; 125 g ai/ha): 40
Plant response rating, Velvetleaf ([11]; 500 g ai/ha): 100
Plant response rating, Wheat ([12]; 125 g ai/ha): 20
Plant response rating, Wheat ([12]; 500 g ai/ha): 30
pest or weed control at 125 g/ha [13]: 20%
pest or weed control at 500 g/ha [13]: 90%
Corn plant response rating (crop injury, 0 = no effect, 100 = complete kill) at 125 g/ha [14]: 0%
Corn plant response rating (crop injury, 0 = no effect, 100 = complete kill) at 500 g/ha [14]: 90%
pest or weed control at 125 g/ha [15]: 40%
pest or weed control at 500 g/ha [15]: 100%
Plant response rating, Crabgrass, Large ([16]; 125 g ai/ha): 30
Plant response rating, Crabgrass, Large ([16]; 500 g ai/ha): 100
Plant response rating, Morningglory ([17]; 125 g ai/ha): 60
Plant response rating, Morningglory ([17]; 500 g ai/ha): 90
pest or weed control at 125 g/ha [18]: 90%
pest or weed control at 500 g/ha [18]: 100%
Plant response rating, Velvetleaf ([19]; 125 g ai/ha): 70
Plant response rating, Velvetleaf ([19]; 500 g ai/ha): 90
plant injury at 125 g/ha [20]: 20%
plant injury at 500 g/ha [20]: 90%

N#Cc1cccc(Oc2ncc(Br)cn2)c1Oc1ncc(Br)cn1 [Compound 1, 2,3-bis[(5-bromo-2-pyrimidinyl)oxy]benzonitrile]
pest or weed control at 250 g/ha [1]: 40%
pest or weed control at 250 g/ha [2]: 90%
plant injury at 250 g/ha [3]: 0%
pest or weed control at 250 g/ha [4]: 95%
pest or weed control at 125 g/ha [5]: 70%
pest or weed control at 500 g/ha [5]: 90%
Plant response rating, Corn ([6]; 125 g ai/ha): 20
Plant response rating, Corn ([6]; 500 g ai/ha): 60
pest or weed control at 125 g/ha [7]: 90%
pest or weed control at 500 g/ha [7]: 100%
Plant response rating, Crabgrass, Large ([8]; 125 g ai/ha): 100
Plant response rating, Crabgrass, Large ([8]; 500 g ai/ha): 100
Plant response rating, Morningglory ([9]; 125 g ai/ha): 30
Plant response rating, Morningglory ([9]; 500 g ai/ha): 100
pest or weed control at 125 g/ha [10]: 100%
pest or weed control at 500 g/ha [10]: 100%
Plant response rating, Velvetleaf ([11]; 125 g ai/ha): 70
Plant response rating, Velvetleaf ([11]; 500 g ai/ha): 100
Plant response rating, Wheat ([12]; 125 g ai/ha): 20
Plant response rating, Wheat ([12]; 500 g ai/ha): 60
pest or weed control at 125 g/ha [13]: 70%
pest or weed control at 500 g/ha [13]: 90%
Corn plant response rating (crop injury, 0 = no effect, 100 = complete kill) at 125 g/ha [14]: 30%
Corn plant response rating (crop injury, 0 = no effect, 100 = complete kill) at 500 g/ha [14]: 80%
pest or weed control at 125 g/ha [15]: 70%
pest or weed control at 500 g/ha [15]: 90%
Plant response rating, Crabgrass, Large ([16]; 125 g ai/ha): 60
Plant response rating, Crabgrass, Large ([16]; 500 g ai/ha): 100
Plant response rating, Morningglory ([17]; 125 g ai/ha): 30
Plant response rating, Morningglory ([17]; 500 g ai/ha): 30
pest or weed control at 125 g/ha [18]: 100%
pest or weed control at 500 g/ha [18]: 100%
Plant response rating, Velvetleaf ([19]; 125 g ai/ha): 70
Plant response rating, Velvetleaf ([19]; 500 g ai/ha): 90
plant injury at 125 g/ha [20]: 30%
plant injury at 500 g/ha [20]: 60%
Plant response rating, Barnyardgrass ([21]; 31 g ai/ha): 0
Plant response rating, Barnyardgrass ([21]; 62 g ai/ha): 0
Plant response rating, Barnyardgrass ([21]; 125 g ai/ha): 0
Plant response rating, Barnyardgrass ([21]; 250 g ai/ha): 0
Plant response rating, Ducksalad ([22]; 31 g ai/ha): 0
Plant response rating, Ducksalad ([22]; 62 g ai/ha): 0
Plant response rating, Ducksalad ([22]; 125 g ai/ha): 50
Plant response rating, Ducksalad ([22]; 250 g ai/ha): 80
Plant response rating, Rice ([23]; 31 g ai/ha): 0
Plant response rating, Rice ([23]; 62 g ai/ha): 0
Plant response rating, Rice ([23]; 125 g ai/ha): 0
Plant response rating, Rice ([23]; 250 g ai/ha): 0
Plant response rating, Sedge, Umbrella ([24]; 31 g ai/ha): 0
Plant response rating, Sedge, Umbrella ([24]; 62 g ai/ha): 30
Plant response rating, Sedge, Umbrella ([24]; 125 g ai/ha): 65
Plant response rating, Sedge, Umbrella ([24]; 250 g ai/ha): 80
